US5789188A, “Tetracycline-efflux pump inhibitor screening methods” (priority 1996, dated 1998)
Where two headings read alike, the source gives them in different places.

Experiments:
strain KB3ind = type: cell-based, E. coli; on Induction Assay response: key: ±: Possible positive; +: Weak positive; ++: Stronger positive; -: Negative
Description: (§1) To detect tetracyclines, a plate assay is developed that is similar to one described previously (11). Cells are grown in Luria Broth (adjusted with NaOH to pH 7.5) with 25 μg/ml of kanamycin to a cell density of 0.5 absorbance units (600 nm). A 25 ml sample of the culture is harvested by centrifugation and resuspended in 1 ml of broth. The cells are mixed with 25 ml of soft agar (1%, wt/vol) and poured onto 100 ml of LB (pH 7.5)+ kanamycin, within a 22 cm^2 NUNC plate (Corning). Samples are applied by spotting from 2 to 15 μl, or by applying a disc impregnated with a compound, and the plate is incubated for 3-4 hours at 37° C. The plates are overlaid with a solution containing 13.5 mg of 6-bromo-2-naphthyl-β-D-galactopyranoside side and 86.5 mg of fast blue RR (Sigma) dissolved in 2 ml of dimethylsulfoxide, to which 25 ml of soft agar is added. β-Galactosidase is detected by the presence of a purple spot.

[1] = tested on: tetracycline efflux pump (strain KB4 or KB5); experiment: Inhibition Assay, plate assay (agar with 5 ng/ml of tetracycline); further: key: ±: Possible positive; +: Weak positive; ++: Stronger positive; -: Negative; type: cell-based, E. coli; details: disc on assay plate
Description: as §1
Two assays are developed for detecting inhibitors of the tetA gene product (using strain KB5), or the tetK gene product (using strain KB4). In the Inhibition Assay, cells of strain KB4 or KB5 are treated as described in the tetracycline screen above, except that the agar medium contains 5 ng/ml of tetracycline. Alternatively a Liquid Assay is also developed. Cells are first grown in LB (pH 7.5). Then cells are shifted to medium containing 5 ng/ml of tetracycline, and tetracycline-containing samples are added to aliquots. Cells are then incubated and assayed as described for the Tetracycline Assay. […] However, the intracellular concentration is reduced in tetracycline resistant strains due to the action of the efflux pump, so more tetracycline would be required in the medium to accumulate sufficient tetracycline inside the cell to induce. The Inhibition Assay is designed to detect compounds that cause β-galactosidase induction in the presence of sub-inducing levels of tetracycline for a resistant strain.

Row | Compound | Induction Assay response (strain KB3ind; disc on assay plate) | Inhibition Assay response [1] | Induction Assay response (strain KB3ind) | response in the Tetracycline Assay (β-galactosidase induction) (strain KB3ind; strain KB3ind, plate assay (plate or liquid assay))
1 | CC(=O)OCC1=C(C(=O)O)N2C(=O)[C@@H](NC(=O)Cc3cccs3)[C@H]2SC1 [Cephalethin] | + | + |  | 
2 | C[C@H]1[C@H](NC(=O)/C(=N\OC(C)(C)C(=O)O)c2csc(N)n2)C(=O)N1S(=O)(=O)O [Aztreonam] | - | - |  | 
3 | CN[C@H](CC(C)C)C(=O)N[C@H]1C(=O)N[C@@H](CC(N)=O)C(=O)N[C@H]2C(=O)N[C@H]3C(=O)N[C@H](C(=O)N[C@H](C(=O)O)c4cc(O)cc(O)c4-c4cc3ccc4O)[C@H](O)c3ccc(c(Cl)c3)Oc3cc2cc(c3O[C@@H]2O[C@H](CO)[C@@H](O)[C@H](O)[C@H]2O[C@H]2C[C@](C)(N)[C@H](O)[C@H](C)O2)Oc2ccc(cc2Cl)[C@H]1O [Vancomycin] |  | - | ± | 
4 | CO[C@H]1/C=C/O[C@@]2(C)Oc3c(C)c(O)c4c(O)c(c(/C=N/N5CCN(C)CC5)c(O)c4c3C2=O)NC(=O)/C(C)=C\C=C\[C@H](C)[C@H](O)[C@@H](C)[C@@H](O)[C@@H](C)[C@H](OC(C)=O)[C@@H]1C [Rifampin] |  | - | - | 
5 | CCn1cc(C(=O)O)c(=O)c2cc(F)c(N3CCNCC3)cc21 [Norfloxacin] | - | - |  | 
6 | CC1(C)S[C@@H]2[C@H](NC(=O)C(C(=O)O)c3ccccc3)C(=O)N2[C@H]1C(=O)O (stereo partly drawn) [Carbenicillin] | + | + |  | 
7 | CCn1cc(C(=O)O)c(=O)c2ccc(C)nc21 [Nalidixic Acid] | - | - |  | 
8 | Nc1ccc(S(=O)(=O)Nc2ccc(Cl)nn2)cc1 [Sulfachloropyridazine] | - | - |  | 
9 | Cc1nnc(NS(=O)(=O)c2ccc(N)cc2)s1 [Sulfamethizole] | - | - |  | 
10 | Cn1nnnc1SCC1=C(C(=O)O)N2C(=O)[C@@H](NC(=O)[C@H](O)c3ccccc3)[C@H]2SC1 [Cefamandole] | ± | + |  | 
11 | O=C(Cc1cccs1)N[C@@H]1C(=O)N2C(C(=O)[O-])=C(C[n+]3ccccc3)CS[C@H]12 [Cephaleridine] |  | + |  | 
12 | CC1(C)S[C@@H]2[C@H](NC(=O)[C@H](C(=O)O)c3ccsc3)C(=O)N2[C@H]1C(=O)O [Ticarcillin] | + | + |  | 
13 | CC1(C)S[C@@H]2[C@H](NC(=O)[C@H](N)c3ccccc3)C(=O)N2[C@H]1C(=O)O [Ampicillin] | + |  |  | 
14 | Neomycin | - |  |  | 
15 | [H]/N=C(/N)N[C@H]1[C@H](O)[C@@H](O)[C@H](O[C@@H]2O[C@@H](C)[C@](O)(C=O)[C@H]2O[C@@H]2O[C@@H](CO)[C@H](O)[C@@H](O)[C@@H]2NC)[C@@H](N/C(N)=N\[H])[C@@H]1O [Streptomycin] | - | - |  | 
16 | CO/N=C(\C(=O)N[C@@H]1C(=O)N2C(C(=O)O)=C(COC(C)=O)CS[C@H]12)c1csc(N)n1 [Cefotaxime] | + |  |  | 
17 | COc1cccc(OC)c1C(=O)N[C@@H]1C(=O)N2[C@@H]1SC(C)(C)[C@@H]2C(=O)O [Methicillin] | - | - |  | 
18 | NC(=O)c1cc[n+](CC2=C(C(=O)O)N3C(=O)[C@@H](NC(=O)[C@@H](c4ccccc4)S(=O)(=O)[O-])[C@H]3SC2)cc1 [Cefsulodin] |  | ± |  | 
19 | C[C@@H](O)[C@H]1C(=O)N2C(C(=O)O)=C(SCCN=CN)C[C@H]12 [Imipenem] |  | ++ | ++ | 
20 | CN(C)C1C(=O)C(C(N)=O)=C(O)C2(O)C(=O)C3=C(O)c4c(O)ccc(Cl)c4C(O)C3CC12 (stereo not drawn) [6-dimethyl chlortetracycline] |  |  |  | capable of detecting
21 | CC[n+]1c(-c2ccccc2)c2cc(N)ccc2c2ccc(N)cc21 [Ethidium bromide] |  | - |  | 
22 | Polymyxin B | - | - |  | 

Row | Compound | Induction Assay response (strain KB3ind; disc on assay plate) | Inhibition Assay response [1] | Induction Assay response (strain KB3ind) | response in the Tetracycline Assay (β-galactosidase induction) (strain KB3ind; strain KB3ind, plate assay (plate or liquid assay))
23 | Gentamicin | - | - |  | 
24 | Cc1onc(-c2ccccc2Cl)c1C(=O)N[C@@H]1C(=O)N2[C@@H]1SC(C)(C)[C@@H]2C(=O)O [Cloxacillin] |  | - |  | 
25 | Nc1ccc(S(=O)(=O)Nc2nccs2)cc1 [Sulfathiazole] | - | - |  | 
26 | CCn1nc(C(=O)O)c(=O)c2cc3c(cc21)OCO3 [Cinoxacin] | ± | - |  | 
27 | CC1(C)S[C@@H]2[C@H](NC(=O)Cc3ccccc3)C(=O)N2[C@H]1C(=O)O [Penicillin G] | - | - |  | 
28 | Colistin | - | - |  | 
29 | CO[C@@]1(NC(=O)C(C(=O)O)c2ccc(O)cc2)C(=O)N2C(C(=O)O)=C(CSc3nnnn3C)CO[C@@H]21 (stereo partly drawn) [Moxalactam] | - | + |  | 
30 | Bacitracin | - | - |  | 
31 | CO[C@@]1(NC(=O)Cc2cccs2)C(=O)N2C(C(=O)O)=C(COC(N)=O)CS[C@@H]21 [Cefoxitin] |  | + |  | 
32 | CCOc1ccc2ccccc2c1C(=O)N[C@@H]1C(=O)N2[C@@H]1SC(C)(C)[C@@H]2C(=O)O [Nafcillin] | - | - |  | 
33 | CO[C@@H]1[C@@H](OC(N)=O)[C@@H](O)[C@H](Oc2ccc3c(O)c(NC(=O)c4ccc(O)c(CC=C(C)C)c4)c(=O)oc3c2C)OC1(C)C [Novobiocin] | - | - |  | 
34 | O=C(N[C@H](CO)[C@H](O)c1ccc([N+](=O)[O-])cc1)C(Cl)Cl [Chloremphenicol] | - | - |  | 
35 | C[C@@H]1[C@H](O)[C@@H](C)/C=C/C=C/CC/C=C/C=C/C=C/C=C/C(O[C@H]2O[C@H](C)[C@@H](O)[C@H](N)[C@@H]2O)CC2O[C@](O)(CC(O)C(O)CCC(O)CC(O)CC(O)CC(=O)O[C@H]1C)CC(O)C2C(=O)O (stereo partly drawn) [Nystatin] | ++ | - |  | 
36 | Nc1ccc(S(=O)(=O)Nc2ncccn2)cc1 [Sulfadiazine] |  | - | - | 
37 | CC1(C)S[C@@H]2[C@H](NC(=O)[C@H](NC(=O)N3CCNC3=O)c3ccccc3)C(=O)N2[C@H]1C(=O)O [Azlocillin] |  | - |  | 
38 | CC(C)(O/N=C(\C(=O)N[C@@H]1C(=O)N2C(C(=O)[O-])=C(C[n+]3ccccc3)CS[C@H]12)c1csc(N)n1)C(=O)O [Ceftazidine] | ++ | ++ |  | 
39 | CCN1CCN(C(=O)N[C@@H](C(=O)N[C@@H]2C(=O)N3[C@@H]2SC(C)(C)[C@@H]3C(=O)O)c2ccccc2)C(=O)C1=O [Piperacillin] | ± | - |  | 
40 | CC[C@H]1OC(=O)[C@H](C)[C@@H](O[C@H]2C[C@@](C)(OC)[C@@H](O)[C@H](C)O2)[C@H](C)[C@@H](O[C@@H]2O[C@H](C)C[C@H](N(C)C)[C@H]2O)[C@](C)(O)C[C@@H](C)C(=O)[C@H](C)[C@@H](O)[C@]1(C)O [Erythromycin] | - | - |  | 
41 | Cc1onc(-c2ccccc2)c1C(=O)N[C@@H]1C(=O)N2[C@@H]1SC(C)(C)[C@@H]2C(=O)O [Oxacillin] | - | - |  | 
42 | NC[C@H]1O[C@H](O[C@H]2[C@H](O)[C@@H](O[C@H]3O[C@H](CO)[C@@H](O)[C@H](N)[C@H]3O)[C@H](N)C[C@@H]2N)[C@H](O)[C@@H](O)[C@@H]1O [Kanamycin] |  | - | - | 
43 | NCC[C@H](O)C(=O)N[C@@H]1C[C@H](N)[C@@H](O[C@H]2O[C@H](CN)[C@@H](O)[C@H](O)[C@H]2O)[C@H](O)[C@H]1O[C@H]1O[C@H](CO)[C@@H](O)[C@H](N)[C@H]1O [Amikacin] | - | - |  | 
44 | NC[C@H]1O[C@H](O[C@H]2[C@H](O)[C@@H](O[C@H]3O[C@H](CO)[C@@H](O)[C@H](N)[C@H]3O)[C@H](N)C[C@@H]2N)[C@H](N)C[C@@H]1O [Tobramycin] | - | - |  | 
